This note sets out measurements from paper PMC4988493 (Nature, 2015).

This experiment has as its target UbiX (Pseudomonas aeruginosa, UniProt Q9HX08). The experiment in a line: crystal structure. The experiment is classed as binding. The conditions noted are these: complex with DMAP.

Chain of UbiX (Q9HX08 whole entry): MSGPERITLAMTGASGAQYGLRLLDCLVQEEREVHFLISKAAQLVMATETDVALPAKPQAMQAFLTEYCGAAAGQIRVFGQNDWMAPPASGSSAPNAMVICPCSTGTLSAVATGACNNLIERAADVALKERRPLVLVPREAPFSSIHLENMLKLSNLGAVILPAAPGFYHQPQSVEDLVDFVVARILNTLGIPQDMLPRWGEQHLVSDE

In the case of `Cc1cc2nc3c(=O)[nH]c(=O)nc-3n(C[C@H](O)[C@H](O)[C@H](O)COP(=O)(O)O)c2cc1C` [FMN], the crystal structure result is “crystal structure of P. aeruginosa UbiX in complex with oxidized FMN and DMAP”.
